Experimental data from publication PMC4761420 (2015).

Test system: 5′-TAMRA-AM1A (RNA, riboswitch) GAGGGUGGAACCGCGCUUCGGCGUCCCUC
Experiment: fluorescence titration
Conditions: 50 mM NaCl; 50 mM MOPS pH 6.5, 0.01 mM EDTA; 100 nM RNA; apparent

Compound: NCCCCNCCCN
- Kd: 54 ± 12 µM
